{"source": "patent US5041581A", "about": "(priority 1986, dated 1991)", "key": {"L1210 cells": {"test_system": "L1210 cells", "assay": "In vitro growth inhibition of L1210 leukemic cells (96 hours, Coulter Counter)", "type": "cell-based, murine", "conditions": "footnote of Table 5; 5760 min", "description": "Four ml of cell suspension were added to culture tubes and the appropriate concentration of free PT or L-PT was added (from 0.01 micro g/ml to 10 micro g/ml final concentration). After 96 hours, the cell concentration of control and experimental cultures were calculated with a Coulter Counter (Coulter Electronics, Hialeah, FLA) and the percent inhibition calculated. The following preparations were tested: free PT, DMPG, DMPC:DMPG 7:3, DMPG-PT and DMPC:DMPG 7:3-PT."}, "[1]": {"conditions": "MLV, 48 hours in 0.9% NaCl solution; cited from earlier work"}, "[2]": {"test_system": "liver metastases of M5076 reticulosarcoma", "assay": "Prophylaxis of liver metastases of mouse M5076 reticulosarcoma", "type": "in vivo, mouse (C57BL/6)", "conditions": "day 21, 10 mg/kg day -1, 10^4 cells iv", "from_the_text": "NeodecanoatoRacemic-DACH. Animals were inoculated on day 0 with 10^4\nM5076 cells intravenously.\nTreated animals were sacrificed on day 21, the livers dissected,\nplaced in Bouin's fixative, and the number of tumor colonies counted."}, "[3]": {"test_system": "liver metastases of M5076 reticulosarcoma", "assay": "Treatment of established liver metastases of mouse M5076 reticulosarcoma", "type": "in vivo, mouse (C57BL/6)", "conditions": "for No. Liver Metastases, mean ± SD: day 30, 7.5 mg/kg days 8, 12, 16, 10^5 cells iv, 7.5 mg/kg", "description": "Animals were treated on days 8, 12, and 16 with\nTreated animals were sacrificed on day 30,\nAnimals were treated on days 4, 8, and 12 with\nTreated animals were sacrificed on day 45,"}, "L1210 mouse leukemia": {"test_system": "L1210 mouse leukemia", "assay": "In vivo antitumor activity against L1210 mouse leukemia (L1210-BDF1 mouse model)", "design": "species or system BDF1 mice", "description": "BDF1 mice were purchased from Charles River (Wilmington, MA). Groups of 6-8 mice weighing 18-22 gm were inoculated ip with 1×10^6 L1210 leukemia cells on day 0. L1210 cells were kept in DBA2 mice were weekly passages between the different experiments. All L-PT preparations were injected ip in volumes of 0.1 to 0.3 ml 24 hours after tumor inoculation. Two different schedules of administration were used: a single injection on day 1 or an injection on days 1, 5 and 9 (multiple). […] Clinical behavior and survival times were monitored until all animals had died. Results were expressed as % T/C (median survival time of treated mice/median survival time of control mice ×100) and number of long-term survivors. Mice living more than 30 days and more than 60 days were considered to be long-term survivors for the single and multiple injection schedule respectively. All L-PT preparations tested for antitumor activity were prepared under sterile conditions on the same day of the experiment.\nThe antitumor activity against L-1210 murine leukemia of the different L-PT analogs was assessed in an L-1210-BDF, mouse model (tumor inoculation day 0, treatment day 1, ip) as described earlier herein.\nThese liposome-encapsulated compounds were tested to determine their optimal dose and effectiveness as inhibitors of in vivo tumor growth as described in Example 12."}}}
{"smiles": "N.N.[Cl][Pt][Cl]", "note": "[CDDP, Cis-platinum, reference compound]", "values": [{"measurement": "CDDP ID50", "setting": "L1210 cells", "value": 0.1, "unit": "micro g/ml"}, {"measurement": "stability", "setting": "[1]", "value": 75, "unit": "%"}, {"measurement": "No. Liver Metastases, mean ± SD", "setting": "[2]; listed as Cis-platinum", "value": "256 ± 54"}, {"measurement": "No. Liver Metastases, mean ± SD", "setting": "[2]; listed as cis-platinum", "value": "256 ±54"}, {"measurement": "No. Liver Metastases, mean ± SD", "setting": "[3]; listed as Cis-platinum", "value": "114 ± 38"}, {"measurement": "No. Liver Metastases, mean ± SD", "setting": "[3]; listed as cis-platinum", "value": "114 ±38"}, {"measurement": "animals with 175 or more liver metastases", "setting": "[3]; day 45, 7.5 mg/kg days 4, 8, 12", "value": "4/6"}, {"measurement": "animals that died before day 45", "setting": "[3]; groups of 6, days 4, 8, and 12", "value": "Two"}, {"measurement": "% T/C", "setting": "L1210 mouse leukemia; 7.5 mg/kg × 3 ip, days 1, 5 and 9", "value": 253, "unit": "%"}, {"measurement": "% T/C", "setting": "L1210 mouse leukemia; 10 mg/kg ip day 1, Exp. 1", "value": 167, "unit": "%"}, {"measurement": "% T/C", "setting": "L1210 mouse leukemia; 10 mg/kg ip day 1, Exp. 3", "value": 189, "unit": "%"}, {"measurement": "Number of Survivors on Day 30", "setting": "L1210 mouse leukemia; 10 mg/kg ip day 1, Exp. 3", "value": "1/6"}, {"measurement": "% T/C", "setting": "L1210 mouse leukemia; 10 mg/kg ip day 1, dissolved in saline (Table 8)", "value": 175, "unit": "%"}, {"measurement": "% T/C, mean", "setting": "L1210 mouse leukemia; 10 mg/kg, single ip dose, means of three experiments", "value": 178, "unit": "%"}, {"measurement": "Long-term survivors", "setting": "L1210 mouse leukemia; single ip dose, more than 30 days", "value": "one or two mice of six"}]}
